From US9724334B1, “Method for treating a neurodegenerative disease or depression comprising administering derivatives of 2-amino-2-(1-dodecyl-1H-1,2,3-triazol-4-yl)propane-1,3-diol” (Kyungpook National University Industry-Academic Cooperation …, priority 2016, dated 2017) come the findings set out here.

SMILES strings stand for the structures.

The target in the assay is T1, ASM (acid sphingomyelinase) (Homo sapiens, UniProt P17405).
T1 construct: fibroblasts (PS1 fibroblasts) derived from Alzheimer's disease patients, followed by the measurement of the change of ASM activity; host or cells: human fibroblast cell lines (PS1, from Alzheimer's disease patients)
T1 sequence (P17405 47-631): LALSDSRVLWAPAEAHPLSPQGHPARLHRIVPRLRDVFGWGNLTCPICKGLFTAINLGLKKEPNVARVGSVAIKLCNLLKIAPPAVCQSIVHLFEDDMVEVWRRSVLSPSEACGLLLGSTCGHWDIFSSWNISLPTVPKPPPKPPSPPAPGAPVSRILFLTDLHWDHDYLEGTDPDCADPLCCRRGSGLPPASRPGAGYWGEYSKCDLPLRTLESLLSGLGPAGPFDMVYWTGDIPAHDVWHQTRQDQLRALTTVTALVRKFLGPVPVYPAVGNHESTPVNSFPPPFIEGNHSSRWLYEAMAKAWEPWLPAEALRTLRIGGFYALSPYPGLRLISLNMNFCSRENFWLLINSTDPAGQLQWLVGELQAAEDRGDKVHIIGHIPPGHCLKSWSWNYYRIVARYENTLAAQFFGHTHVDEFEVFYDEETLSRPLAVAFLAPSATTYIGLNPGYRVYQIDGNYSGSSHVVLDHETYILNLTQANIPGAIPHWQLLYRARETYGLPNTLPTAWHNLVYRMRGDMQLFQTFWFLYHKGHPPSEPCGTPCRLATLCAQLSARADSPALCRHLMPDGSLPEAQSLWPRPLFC
The assay is described as follows: ASM activity in fibroblasts derived from Alzheimer's disease patients (PS1 fibroblasts). Type of assay: cell-based. Also noted: dose or concentration left out as unconfirmed. Particulars: PS1 fibroblasts with increased ASM activity; versus untreated PS1 fibroblasts. The procedure: Human fibroblast cell lines (normal and PS1) were obtained from Coriell Institute and cultured in DMEM containing 15% FBS under the condition of 5% CO2 at 37° C. Subsequently, the cell lines were treated with the ASM inhibitory compound of the Chemical Formula 1, amitriptyline (AMI) and FTY720, followed by measuring the change of ASM activity. The concentration levels of ASM were measured as follows. Specifically, a microliter mouse plasma, brain tissue and 3 μl of fibroblast samples were mixed with ASM activity buffer and stored at 37° C. 114 μl of ethanol was added to terminate the hydrolysis reaction, followed by centrifugation. 30 μl of the supernatant was transferred to a glass vial, of which 5 μl was applied to the UPLC system. The ASM concentration levels were quantified by comparison with Bodipy (aminoacetaldehyde) conjugated with sphingomyelin and ceramide. Extraction and quantification of the sphingomyelin and ceramide were performed by extracting lipids from known method samples and resuspending the dried lipid extract in 25 μl of 0.2% Igepal CA-630 (Sigma-Aldrich). Each lipid level was quantified using the UPLC system. In order to confirm the ASM inhibitory effect of the compound developed according to the present invention, the ASM inhibitory compound of the Chemical Formula 2, AMI and FTY720 were treated […] concentration, respectively, in the fibroblasts (PS1 fibroblasts) derived from Alzheimer's disease patients, followed by the measurement of the change of ASM activity.

In the case of `CCCCCCCCc1ccc(CCC(N)(CO)CO)cc1` [FTY720, reference compound], the “change of ASM activity” value was “markedly reduced”.
